# Reference: PMC10290954 (Nature Metabolism, 2023)
# Assays:
# Type in all cases: cell-based
# mouse islets [1] = experiment: Mouse islet perifusion, control and Gipr beta-cell knockout islets ± Ex9 (Fig. 1a), insulin secretion; conditions: Ex9 1 μM
# Protocol: (§1) In brief, islets were individually picked to ensure consistency across chambers with respect to both number and size. […] Insulin values were measured with a Lumit insulin immunoassay (Promega) using an EnVision plate reader (PerkinElmer).
# mouse islets [2] = experiment: Mouse islet perifusion with incretin receptor antagonists (Fig. 1b), insulin secretion; conditions: antagonists 1 μM, tirzepatide 0–100 nM
# Protocol: as §1
# human islets [3] = experiment: Human islet perifusion, insulin secretion (Fig. 2); conditions: human islets stimulated with TZP; for TZP insulin secretion iAUC, Percent Control: % of Average Control (PBS); for TZP insulin secretion iAUC: PBS or antagonist(s) as labelled
# Protocol: (§2) Human islets were obtained from both the Alberta Diabetes Institute and the Integrated Islet Distribution Program. All islets were obtained from consenting donors. Details for the general perifusion protocol have been previously described[21] and are similar to the mouse perifusion protocol. […] Each set of human islets consisted of n = 3 for each condition. These were averaged to generate a single data point (Fig. 2c). Insulin values were measured with a Lumit insulin immunoassay (Promega) using an EnVision plate reader (PerkinElmer). For the glucagon secretion experiments (Fig. 3), the average glucagon values were calculated during control (minutes 35–45) and stimulated (minutes 55–65) conditions. All peptides were used at 30 nM concentrations based on previous work[16]. Amino acids were used at concentrations of 3 mM based on previous work[11]. Glucagon was measured with a Lumit Glucagon Immunoassay Kit (cat. no. CS3037A02; Promega) using an EnVision plate reader (PerkinElmer). Somatostatin was measured with an ELISA assay (cat. no. FEK-060-14; Phoenix Pharmaceuticals). All data are expressed as the measured concentration relative to both flow rate and islet number (insulin, ng ml^–1 × (1/200 µl ml^–1) × (1/75 islets); glucagon, pM × (1/200 µl ml^–1) × (1/75 islets); somatostatin, pg ml^–1 × (1/200 µl ml^–1) × (1/75 islets))[49]. Human pancreatic islets and pancreas tissue were isolated from deceased donors under ethical approval from the Human Research Ethics Board of the University of Alberta (Pro00013094, Pro00001754) and obtained from the NIDDK-funded Integrated Islet Distribution Program (IIDP) (RRID: SCR _014387). All donors’ families gave informed consent for the use of pancreatic tissue in research and were not financially compensated.
# human islets [4] = experiment: Human islet perifusion, insulin secretion with Ex9 or hGIP(3-30) (Extended Data Fig. 2); parameters: key to iAUC: insulin iAUC, ng/ml × (1/200 µl/ml) × (1/75 islets), baseline = first point; conditions: insulin secretion; for Mean (One way ANOVA): iAUC, Control = 1, mean of n = 3; for iAUC: TZP + PBS or labelled antagonist
# Protocol: as §2
# The integrated area under the curve (iAUC) was calculated for both glucose and tirzepatide stimulated insulin secretion using the value of the first time point as the baseline. All values are mean + /- SEM, n = 3/group. A one-way ANOVA with Tukey’s posthoc test was used. Source data
substance,measurement,setting,value
exendin(9-39) [Ex9],Effect on tirzepatide-stimulated insulin secretion,mouse islets [1],completely blocked insulin secretion in response to tirzepatide
same,Effect on tirzepatide-stimulated insulin secretion,mouse islets [2],prevented insulin secretion in response to tirzepatide
same,"TZP insulin secretion iAUC, Percent Control","human islets [3]; donor R434, replicate 1",81.0 %Control
same,"TZP insulin secretion iAUC, Percent Control","human islets [3]; donor R434, replicate 2",70.5 %Control
same,"TZP insulin secretion iAUC, Percent Control","human islets [3]; donor R434, replicate 3",110.7 %Control
same,TZP insulin secretion iAUC,"human islets [3]; donor R434, replicate 1",149.1
same,TZP insulin secretion iAUC,"human islets [3]; donor R434, replicate 2",129.7
same,TZP insulin secretion iAUC,"human islets [3]; donor R434, replicate 3",203.7
same,"TZP insulin secretion iAUC, Percent Control","human islets [3]; donor R443, replicate 1",152.6 %Control
same,"TZP insulin secretion iAUC, Percent Control","human islets [3]; donor R443, replicate 2",43.9 %Control
same,"TZP insulin secretion iAUC, Percent Control","human islets [3]; donor R443, replicate 3",123.9 %Control
same,TZP insulin secretion iAUC,"human islets [3]; donor R443, replicate 1",9.764
same,TZP insulin secretion iAUC,"human islets [3]; donor R443, replicate 2",2.809
same,TZP insulin secretion iAUC,"human islets [3]; donor R443, replicate 3",7.929
same,"TZP insulin secretion iAUC, Percent Control","human islets [3]; donor R444, replicate 1",49.3 %Control
same,"TZP insulin secretion iAUC, Percent Control","human islets [3]; donor R444, replicate 2",46.5 %Control
same,"TZP insulin secretion iAUC, Percent Control","human islets [3]; donor R444, replicate 3",59.5 %Control
same,TZP insulin secretion iAUC,"human islets [3]; donor R444, replicate 1",12.31
same,TZP insulin secretion iAUC,"human islets [3]; donor R444, replicate 2",11.61
same,TZP insulin secretion iAUC,"human islets [3]; donor R444, replicate 3",14.86
same,"TZP insulin secretion iAUC, Percent Control","human islets [3]; donor R448, replicate 1",95.4 %Control
same,"TZP insulin secretion iAUC, Percent Control","human islets [3]; donor R448, replicate 2",86.1 %Control
same,"TZP insulin secretion iAUC, Percent Control","human islets [3]; donor R448, replicate 3",78.6 %Control
same,TZP insulin secretion iAUC,"human islets [3]; donor R448, replicate 1",169.1
same,TZP insulin secretion iAUC,"human islets [3]; donor R448, replicate 2",152.5
same,TZP insulin secretion iAUC,"human islets [3]; donor R448, replicate 3",139.2
same,"TZP insulin secretion iAUC, Percent Control","human islets [3]; donor R449, replicate 1",10.8 %Control
same,"TZP insulin secretion iAUC, Percent Control","human islets [3]; donor R449, replicate 2",15.5 %Control
same,"TZP insulin secretion iAUC, Percent Control","human islets [3]; donor R449, replicate 3",25.1 %Control
same,TZP insulin secretion iAUC,"human islets [3]; donor R449, replicate 1",14.8
same,TZP insulin secretion iAUC,"human islets [3]; donor R449, replicate 2",21.27
same,TZP insulin secretion iAUC,"human islets [3]; donor R449, replicate 3",34.32
same,"TZP insulin secretion iAUC, Percent Control","human islets [3]; donor R451, replicate 1",39.0 %Control
same,"TZP insulin secretion iAUC, Percent Control","human islets [3]; donor R451, replicate 2",22.6 %Control
same,"TZP insulin secretion iAUC, Percent Control","human islets [3]; donor R451, replicate 3",24.7 %Control
same,TZP insulin secretion iAUC,"human islets [3]; donor R451, replicate 1",36.08
same,TZP insulin secretion iAUC,"human islets [3]; donor R451, replicate 2",20.91
same,TZP insulin secretion iAUC,"human islets [3]; donor R451, replicate 3",22.84
same,"TZP insulin secretion iAUC, Percent Control","human islets [3]; donor S1472, replicate 1",91.9 %Control
same,"TZP insulin secretion iAUC, Percent Control","human islets [3]; donor S1472, replicate 2",146.0 %Control
same,"TZP insulin secretion iAUC, Percent Control","human islets [3]; donor S1472, replicate 3",127.6 %Control
same,TZP insulin secretion iAUC,"human islets [3]; donor S1472, replicate 1",50.05
same,TZP insulin secretion iAUC,"human islets [3]; donor S1472, replicate 2",79.46
same,TZP insulin secretion iAUC,"human islets [3]; donor S1472, replicate 3",69.48
same,"TZP insulin secretion iAUC, Percent Control","human islets [3]; donor S2886, replicate 1",19.6 %Control
same,"TZP insulin secretion iAUC, Percent Control","human islets [3]; donor S2886, replicate 2",20.0 %Control
same,"TZP insulin secretion iAUC, Percent Control","human islets [3]; donor S2886, replicate 3",50.9 %Control
same,TZP insulin secretion iAUC,"human islets [3]; donor S2886, replicate 1",36.46
same,TZP insulin secretion iAUC,"human islets [3]; donor S2886, replicate 2",37.22
same,TZP insulin secretion iAUC,"human islets [3]; donor S2886, replicate 3",94.97
same,Mean (One way ANOVA),"human islets [4]; donor R464, R464 (3-30) TZP",1.267
same,Mean (One way ANOVA),"human islets [4]; donor S5423, SAMN5423 (3-30) TZP",1.135
same,iAUC,"human islets [4]; donor R464, replicate 1",1.277
same,iAUC,"human islets [4]; donor R464, replicate 2",1.0253
same,iAUC,"human islets [4]; donor R464, replicate 3",1.497
same,iAUC,"human islets [4]; donor S5423, replicate 1",1.294
same,iAUC,"human islets [4]; donor S5423, replicate 2",1.08
same,iAUC,"human islets [4]; donor S5423, replicate 3",1.031
